Results: the NIST ThermoML archive (doi:10.1016/j.jct.2019.02.011)

Experiment: xn = mol fraction of the nth substance listed
Conditions: Liquid, Vibrating tube method

COC(=O)OC [dimethyl carbonate] + CCO
mass density [kg/m3]
Conditions	100 kPa	5000 kPa	10000 kPa	15000 kPa	20000 kPa	25000 kPa	30000 kPa	35000 kPa	40000 kPa
288.15 K, x1 = 0.0252	804.2	808	812.06	815.89	819.61	822.92	826.21	829.16	832.33
288.15 K, x1 = 0.0506	813.67	817.57	821.64	825.53	829.25	832.61	835.95	838.9	842.19
288.15 K, x1 = 0.0757	823.01	826.96	831.04	834.98	838.69	842.06	845.41	848.42	851.7
288.15 K, x1 = 0.1003	831.96	835.91	839.99	843.94	847.7	851.08	854.48	857.54	860.78
288.15 K, x1 = 0.1508	849.93	853.94	858.08	862.04	865.84	869.28	872.69	875.76	879.06
288.15 K, x1 = 0.2	866.84	870.91	875.1	879.08	882.88	886.33	889.8	892.93	896.24
288.15 K, x1 = 0.2547	885.11	889.19	893.38	897.43	901.27	904.73	908.21	911.35	914.67
288.15 K, x1 = 0.3002	899.9	903.99	908.19	912.25	916.09	919.56	923.05	926.24	929.57
288.15 K, x1 = 0.3498	915.51	919.65	923.86	927.88	931.71	935.24	938.74	941.95	945.28
288.15 K, x1 = 0.4	930.78	934.94	939.15	943.23	947.06	950.6	954.16	957.37	960.71
288.15 K, x1 = 0.449	945.14	949.35	953.57	957.66	961.48	965.03	968.6	971.87	975.22
288.15 K, x1 = 0.4996	959.51	963.73	967.96	972.06	975.93	979.49	983.06	986.34	989.7
288.15 K, x1 = 0.5507	973.56	977.78	982.01	986.13	989.99	993.56	997.14	1000.43	1003.8
288.15 K, x1 = 0.6005	986.73	990.95	995.19	999.32	1003.17	1006.8	1010.39	1013.69	1017.06
288.15 K, x1 = 0.6455	998.17	1002.45	1006.64	1010.83	1014.68	1018.32	1021.92	1025.22	1028.6
288.15 K, x1 = 0.6931	1009.92	1014.21	1018.41	1022.55	1026.4	1030.05	1033.65	1037.01	1040.4
288.15 K, x1 = 0.7502	1023.43	1027.72	1031.92	1036.08	1039.92	1043.58	1047.24	1050.61	1054
288.15 K, x1 = 0.8009	1035	1039.3	1043.51	1047.68	1051.52	1055.18	1058.85	1062.22	1065.62
288.15 K, x1 = 0.8505	1046	1050.3	1054.51	1058.68	1062.52	1066.19	1069.82	1073.25	1076.6
288.15 K, x1 = 0.9008	1056.7	1061.01	1065.22	1069.4	1073.24	1076.92	1080.55	1083.98	1087.34
288.15 K, x1 = 0.9255	1061.81	1066.14	1070.35	1074.54	1078.38	1082.06	1085.69	1089.13	1092.49
288.15 K, x1 = 0.9477	1066.36	1070.68	1074.89	1079.08	1082.92	1086.6	1090.23	1093.68	1097.04
288.15 K, x1 = 0.9735	1071.55	1075.89	1080.08	1084.28	1088.11	1091.79	1095.43	1098.88	1102.23
288.15 K, x1 = 1	1076.83	1081.15	1085.32	1089.52	1093.35	1096.99	1100.63	1104.08	1107.4
293.15 K, x1 = 0.0252	799.52	803.53	807.63	811.64	815.31	819.03	822.43	825.77	828.8
293.15 K, x1 = 0.0506	808.93	813.04	817.2	821.2	824.93	828.7	832.16	835.5	838.59
293.15 K, x1 = 0.0757	818.21	822.32	826.48	830.53	834.27	838.04	841.5	844.9	848.05
293.15 K, x1 = 0.1003	827.05	831.21	835.37	839.43	843.17	846.95	850.46	853.86	857.02
293.15 K, x1 = 0.1508	844.9	849.11	853.32	857.39	861.19	864.97	868.5	871.96	875.19
293.15 K, x1 = 0.2	861.69	865.96	870.22	874.34	878.21	882.03	885.62	889.09	892.34
293.15 K, x1 = 0.2547	879.83	884.11	888.37	892.5	896.38	900.3	903.95	907.43	910.71
293.15 K, x1 = 0.3002	894.46	898.79	903.11	907.24	911.13	915.06	918.71	922.25	925.54
293.15 K, x1 = 0.3498	909.95	914.32	918.65	922.78	926.73	930.66	934.33	937.83	941.14
293.15 K, x1 = 0.4	925.11	929.49	933.81	937.95	941.91	945.85	949.52	953.08	956.41
293.15 K, x1 = 0.449	939.35	943.78	948.11	952.25	956.22	960.16	963.84	967.41	970.75
293.15 K, x1 = 0.4996	953.6	958.04	962.37	966.52	970.5	974.44	978.13	981.71	985.12
293.15 K, x1 = 0.5507	967.53	971.96	976.3	980.45	984.45	988.38	992.09	995.67	999.1
293.15 K, x1 = 0.6005	980.58	985.07	989.41	993.51	997.52	1001.46	1005.17	1008.76	1012.2
293.15 K, x1 = 0.6455	991.96	996.45	1000.79	1004.95	1008.96	1012.9	1016.62	1020.22	1023.68
293.15 K, x1 = 0.6931	1003.6	1008.14	1012.44	1016.6	1020.62	1024.56	1028.29	1031.89	1035.36
293.15 K, x1 = 0.7502	1017.03	1021.58	1025.93	1030.04	1034.07	1038.07	1041.8	1045.41	1048.9
293.15 K, x1 = 0.8009	1028.54	1033.09	1037.44	1041.56	1045.6	1049.6	1053.34	1056.96	1060.46
293.15 K, x1 = 0.8505	1039.42	1043.97	1048.32	1052.45	1056.49	1060.49	1064.24	1067.85	1071.38
293.15 K, x1 = 0.9008	1050.05	1054.61	1058.94	1063.09	1067.15	1071.17	1074.9	1078.5	1082.06
293.15 K, x1 = 0.9255	1055.15	1059.71	1064.04	1068.18	1072.28	1076.27	1080.01	1083.62	1087.15
293.15 K, x1 = 0.9477	1059.65	1064.21	1068.54	1072.7	1076.81	1080.81	1084.52	1088.13	1091.64
293.15 K, x1 = 0.9735	1064.83	1069.39	1073.72	1077.83	1081.94	1085.94	1089.66	1093.25	1096.74
293.15 K, x1 = 1	1070.06	1074.62	1078.93	1083.01	1087.08	1091.03	1094.75	1098.34	1101.84
298.15 K, x1 = 0.0252	795.08	799.26	803.35	807.39	811.05	–	–	–	–
298.15 K, x1 = 0.0506	804.43	808.65	812.8	816.89	820.61	–	–	–	–
298.15 K, x1 = 0.0757	813.64	817.91	822.06	826.15	829.93	–	–	–	–
298.15 K, x1 = 0.1003	822.42	826.69	830.89	834.98	838.77	–	–	–	–
298.15 K, x1 = 0.1508	840.14	844.46	848.67	852.81	856.66	–	–	–	–
298.15 K, x1 = 0.2	856.81	861.18	865.45	869.59	873.46	–	–	–	–
298.15 K, x1 = 0.2547	874.78	879.19	883.47	887.66	891.55	–	–	–	–
298.15 K, x1 = 0.3002	889.24	893.65	897.98	902.17	906.13	–	–	–	–
298.15 K, x1 = 0.3498	904.6	909.01	913.35	917.59	921.56	–	–	–	–
298.15 K, x1 = 0.4	919.63	924.09	928.49	932.73	936.77	–	–	–	–
298.15 K, x1 = 0.449	933.8	938.26	942.66	946.91	950.95	–	–	–	–
298.15 K, x1 = 0.4996	947.93	952.44	956.85	961.1	965.16	–	–	–	–
298.15 K, x1 = 0.5507	961.74	966.24	970.71	974.95	–	–	–	–	–
298.15 K, x1 = 0.6005	974.67	979.17	983.64	987.89	–	–	–	–	–
298.15 K, x1 = 0.6455	985.93	990.48	994.96	999.21	–	–	–	–	–
298.15 K, x1 = 0.6931	997.5	1002.05	1006.53	1010.78	–	–	–	–	–
298.15 K, x1 = 0.7502	1010.81	1015.36	1019.85	1024.1	–	–	–	–	–
298.15 K, x1 = 0.8009	1022.25	1026.8	1031.29	1035.55	–	–	–	–	–
298.15 K, x1 = 0.8505	1033.01	1037.56	1042.06	1046.31	–	–	–	–	–
298.15 K, x1 = 0.9008	1043.58	1048.13	1052.63	1056.89	–	–	–	–	–
298.15 K, x1 = 0.9255	1048.64	1053.19	1057.7	1061.95	–	–	–	–	–
298.15 K, x1 = 0.9477	1053.11	1057.69	1062.19	1066.43	–	–	–	–	–
298.15 K, x1 = 0.9735	1058.28	1062.83	1067.34	1071.56	–	–	–	–	–
298.15 K, x1 = 1	1063.45	1068	1072.51	1076.72	–	–	–	–	–
